# Experimental data: US20260262643A1, “HERBICIDAL BENZOXAZINES” (FMC CORPORATION, priority 2022, published 2026)
# Tests used:
# [1] = test system: blackgrass; assay: Test A preemergence; format: in vivo, Alopecurus myosuroides
# In short: (§1)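 Weeds and crops in loam–sand blend were sprayed preemergence onto soil or postemergence at 2–10 cm (one- to two-leaf stage). Test chemicals were in a non-phytotoxic solvent with surfactant. After 10 days in the greenhouse, injury was rated visually against untreated controls on a 0 (no effect) to 100 (complete control) scale.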
# [2] = test system: corn; assay: Test A preemergence; format: in vivo, Zea mays
# In short: as §1
# [3] = test system: foxtail, giant; assay: Test A preemergence; format: in vivo, Setaria faberi
# In short: as §1
# [4] = test system: goosegrass; assay: Test A preemergence; format: in vivo, Eleusine indica
# In short: as §1
# [5] = test system: kochia; assay: Test A preemergence; format: in vivo, Bassia scoparia
# In short: as §1
# [6] = test system: oat, wild; assay: Test A preemergence; format: in vivo, Avena fatua
# In short: as §1
# [7] = test system: pigweed, palmer; assay: Test A preemergence; format: in vivo, Amaranthus palmeri
# In short: as §1
# [8] = test system: ragweed; assay: Test A preemergence; format: in vivo, Ambrosia artemisiifolia
# In short: as §1
# [9] = test system: ryegrass, Italian; assay: Test A preemergence; format: in vivo, Lolium multiflorum
# In short: as §1
# [10] = test system: soybean; assay: Test A preemergence; format: in vivo, Glycine max
# In short: as §1
# [11] = test system: wheat; assay: Test A preemergence; format: in vivo, Triticum aestivum
# In short: as §1
# [12] = test system: blackgrass; assay: Test A postemergence; format: in vivo, Alopecurus myosuroides; conditions: postemergence, 10 days
# In short: as §1
# [13] = test system: corn; assay: Test A postemergence; format: in vivo, Zea mays; conditions: postemergence, 10 days
# In short: as §1
# [14] = test system: foxtail, giant; assay: Test A postemergence; format: in vivo, Setaria faberi; conditions: postemergence, 10 days
# In short: as §1
# [15] = test system: goosegrass; assay: Test A postemergence; format: in vivo, Eleusine indica; conditions: postemergence, 10 days
# In short: as §1
# [16] = test system: kochia; assay: Test A postemergence; format: in vivo, Bassia scoparia; conditions: postemergence, 10 days
# In short: as §1
# [17] = test system: oat, wild; assay: Test A postemergence; format: in vivo, Avena fatua; conditions: postemergence, 10 days
# In short: as §1
# [18] = test system: pigweed, palmer; assay: Test A postemergence; format: in vivo, Amaranthus palmeri; conditions: postemergence, 10 days
# In short: as §1
# [19] = test system: ragweed; assay: Test A postemergence; format: in vivo, Ambrosia artemisiifolia; conditions: postemergence, 10 days
# In short: as §1
# [20] = test system: ryegrass, Italian; assay: Test A postemergence; format: in vivo, Lolium multiflorum; conditions: postemergence, 10 days
# In short: as §1
# [21] = test system: soybean; assay: Test A postemergence; format: in vivo, Glycine max; conditions: postemergence, 10 days
# In short: as §1
# [22] = test system: wheat; assay: Test A postemergence; format: in vivo, Triticum aestivum; conditions: postemergence, 10 days
# In short: as §1
# [23] = test system: galium; assay: Test A postemergence; format: in vivo, Galium aparine; conditions: postemergence, 10 days
# In short: as §1
# [24] = test system: horseweed; assay: Test A postemergence; format: in vivo, Erigeron canadensis; conditions: postemergence, 10 days
# In short: as §1
# [25] = test system: barnyardgrass; assay: Test B flooded paddy test; format: in vivo, Echinochloa crus-galli; conditions: 250 g ai/ha, Flood, 13 days, 0 to 100 scale (0 no effect, 100 complete control)
# In short: (§2)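 Species grown to 2-leaf stage; pots flooded 3 cm above soil and compound applied directly to paddy water, depth maintained throughout. After 13 days in greenhouse, plants visually rated against controls on 0–100 scale (0 no effect, 100 complete control); dash means no result.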
# [26] = test system: ducksalad; assay: Test B flooded paddy test; format: in vivo, Heteranthera limosa; conditions: 250 g ai/ha, Flood, 13 days, 0 to 100 scale (0 no effect, 100 complete control)
# In short: as §2
# [27] = test system: rice; assay: Test B flooded paddy test; format: in vivo, Oryza sativa; conditions: 250 g ai/ha, Flood, 13 days, 0 to 100 scale (0 no effect, 100 complete control)
# In short: as §2
# [28] = test system: sedge, umbrella; assay: Test B flooded paddy test; format: in vivo, Cyperus difformis; conditions: 250 g ai/ha, Flood, 13 days, 0 to 100 scale (0 no effect, 100 complete control)
# In short: as §2
# [29] = 125 g ai/ha, visual injury after 10 days, 0 to 100 scale, 0 is no effect, 100 is complete control
# [30] = 500 g ai/ha, 0 to 100 scale (0 no effect, 100 complete control), 10 days
# [31] = 125 g ai/ha, 0 to 100 scale, 0 no effect, 100 complete control
# [32] = 500 g ai/ha, visual injury, 0 to 100 scale (0 no effect, 100 complete control)
compound,measurement,setting,value
CCc1ccc(-n2cnc(C3CC3)n2)cc1C(=O)N1C[C@H](C)Oc2c(Cl)cccc21 [Compound 103],"Plant response rating, Blackgrass",[1]; [29],50
same,"Plant response rating, Blackgrass",[1]; [30],80
same,"Plant response rating, Corn",[2]; [29],20
same,"Plant response rating, Corn",[2]; [30],20
same,"Plant response rating, Foxtail, Giant",[3]; [29],100
same,"Plant response rating, Foxtail, Giant",[3]; [30],100
same,"Plant response rating, Goosegrass",[4]; [29],100
same,"Plant response rating, Goosegrass",[4]; [30],100
same,"Plant response rating, Kochia",[5]; [29],50
same,"Plant response rating, Kochia",[5]; [30],90
same,"Plant response rating, Oat, Wild",[6]; [29],40
same,"Plant response rating, Oat, Wild",[6]; [30],40
same,"Plant response rating, Pigweed, Palmer",[7]; [29],90
same,"Plant response rating, Pigweed, Palmer",[7]; [30],100
same,"Plant response rating, Ragweed",[8]; [29],0
same,"Plant response rating, Ragweed",[8]; [30],0
same,"Plant response rating, Ryegrass, Italian",[9]; [29],80
same,"Plant response rating, Ryegrass, Italian",[9]; [30],90
same,"Plant response rating, Soybean",[10]; [29],30
same,"Plant response rating, Soybean",[10]; [30],60
same,"Plant response rating, Wheat",[11]; [29],0
same,"Plant response rating, Wheat",[11]; [30],0
same,Blackgrass plant response rating,[12]; [31],60
same,"Plant response rating, Blackgrass",[12]; [32],90
same,Corn plant response rating,[13]; [31],10
same,"Plant response rating, Corn",[13]; [32],80
same,"Foxtail, Giant plant response rating",[14]; [31],90
same,"Plant response rating, Foxtail, Giant",[14]; [32],90
same,Goosegrass plant response rating,[15]; [31],70
same,"Plant response rating, Goosegrass",[15]; [32],100
same,Kochia plant response rating,[16]; [31],80
same,"Plant response rating, Kochia",[16]; [32],100
same,"Oat, Wild plant response rating",[17]; [31],30
same,"Plant response rating, Oat, Wild",[17]; [32],80
same,"Pigweed, Palmer plant response rating",[18]; [31],90
same,"Plant response rating, Pigweed, Palmer",[18]; [32],100
same,Ragweed plant response rating,[19]; [31],0
same,"Plant response rating, Ragweed",[19]; [32],40
same,"Ryegrass, Italian plant response rating",[20]; [31],50
same,"Plant response rating, Ryegrass, Italian",[20]; [32],60
same,Soybean plant response rating,[21]; [31],100
same,"Plant response rating, Soybean",[21]; [32],100
same,Wheat plant response rating,[22]; [31],10
same,"Plant response rating, Wheat",[22]; [32],30
same,Galium plant response rating,[23]; [31],100
same,"Plant response rating, Galium",[23]; [32],100
same,Horseweed plant response rating,[24]; [31],0
same,"Plant response rating, Horseweed",[24]; [32],10
same,"Plant response rating, Barnyardgrass",[25],20
same,"Plant response rating, Ducksalad",[26],35
same,"Plant response rating, Rice",[27],10
same,"Plant response rating, Sedge, Umbrella",[28],100
